# Source: US20240277684A1, “BLOCKADE OF CHEMOKINE (C-C MOTIF) RECEPTOR 2 DURING FLUID RESUSCITATION” (University of South Florida, priority 2022, published 2024)
# pIC50, pKd: −log10 of the molar value.
# Legend:
# hemorrhagic shock [1] = test: Example 2 Series 2: 60 min hemorrhagic shock, single dose, fluid resuscitation until t=300 min; format: in vivo, rat
# Method: (§1) The hemorrhagic shock models were performed as described previously, with slight modifications (DeSantis A J, et al., The Chemokine (C-C Motif) Receptor 2 Antagonist INCB3284 Reduces Fluid Requirements and Protects From Hemodynamic Decompensation During Resuscitation From Hemorrhagic Shock. Crit Care Explor 2022;4(5):e0701; Bach H H, et al., Chemokine (C-X-C motif) receptor 4 and atypical chemokine receptor 3 regulate vascular alpha(1)-adrenergic receptor function. Mol Med 2014; 20:435-47; Nassoiy S P, et al., Effects of the Kv7 voltage activated potassium channel inhibitor linopirdine in rat models of hemorrhagic shock. Clin Exp Pharmacol Physiol 2018. doi: 10.1111/1440-1681.12958. PubMed PMID: 29702725; Bach H H, et al., Proteasome inhibition prolongs survival during lethal hemorrhagic shock in rats. J Trauma Acute Care Surg 2013; 74(2):499-507). In brief, anesthesia induction was performed with the animal and isoflurane-soaked gauze placed in a bell jar. After anesthesia induction, the animals were transferred to the operative field and anesthesia was maintained with 2.7% isoflurane administered via nose-cone inhalation with the SomnoSuite small animal anesthesia system (Kent Scientific Corporation, Torrington, CT, USA). […] Using a direct cut-down technique, the left femoral artery was isolated and cannulated with a 24-gauge peripheral intravenous catheter to allow for blood withdrawal, hemodynamic monitoring, drug administration, and fluid resuscitation. After catheter placement, isoflurane was decreased to 1.5%. Hemodynamics were continuously monitored with the Surgivet invasive blood pressure monitor (Med-Electronics, Beltsville, MD, USA). Blood pressures were recorded at 1-5 min intervals during the hemorrhage and resuscitation periods. Four subsequent series of experiments were performed. All experiments in each series were performed in alternating order. In all experiments animals were continuously monitored and remained under general anesthesia until euthanasia or death, as defined by asystole or loss of pulse pressure.
# Series 2: Rats were hemorrhaged to a MAP of less than or equal to 30 mmHg for a period of 60 min, followed by fluid resuscitation until t=300 min as in Series 1. At the end of the hemorrhagic shock period (t=60 min), animals were injected with 1 mL of normal saline (NS) (n=6), 5 μmol/kg (n=6) INCB3284 in 1 mL NS or 1.1 μmol/kg SB 328437 (n=6) in 1 mL NS at t=60 min. At t=0 min, 60 min, 120 min, 180 min, 240 min and 300 min, blood samples (0.3 ml) were obtained and used for arterial blood gas analyses and measurements of routine laboratory parameters. At t=300 min, surviving animals were euthanized (5% isoflurane inhalation, bilateral pneumothorax).
# Arterial blood gases and routine laboratory parameters. Arterial blood gases, electrolytes, creatinine, lactate, hematocrit and hemoglobin were analyzed using the Element point of care veterinary blood gas, electrolyte and critical care analyzer (Cuattro Veterinary USA, Loveland, CO, USA).
# solubility = format: physicochemical
# CCR3 [2] = target: T1, CCR3 (Homo sapiens, UniProt P51677); settings: read-out: IC50, CCR3 antagonist; cited from earlier work
# T1 sequence (P51677 1-355): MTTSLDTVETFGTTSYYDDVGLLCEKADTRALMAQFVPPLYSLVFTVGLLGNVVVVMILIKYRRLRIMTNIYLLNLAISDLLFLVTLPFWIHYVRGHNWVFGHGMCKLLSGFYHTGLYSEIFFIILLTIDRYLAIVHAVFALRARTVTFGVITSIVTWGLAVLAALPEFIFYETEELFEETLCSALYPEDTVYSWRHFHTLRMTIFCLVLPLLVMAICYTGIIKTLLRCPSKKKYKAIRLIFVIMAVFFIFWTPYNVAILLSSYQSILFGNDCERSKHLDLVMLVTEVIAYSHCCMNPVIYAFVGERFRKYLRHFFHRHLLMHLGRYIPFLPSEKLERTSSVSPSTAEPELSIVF
# severe hemorrhagic shock = test: Example 2 Series 4: lethal hemorrhage without fluid resuscitation; format: in vivo, rat; settings: 5 μmol/kg INCB3284 or 1 μmol/kg SB328437 after 40% TBV hemorrhage
# Method: as §1
# Series 4: The purpose of these experiments was to determine whether treatment with the chemokine receptor antagonists increases shock tolerance, blood pressure and survival time without additional fluid resuscitation. As such, death is an intentional endpoint. Earlier endpoints are unable to answer these questions and alternatives are not available. Rats were hemorrhaged 40% total blood volume (TBV) within 10 min. At t=15 min, animals were injected with vehicle (1 mL NS, n=3), 5 μmol/kg INCB3284 in 1 mL NS (n=5) or […] SB 328437 in 1 mL NS (n=5). Animals were then hemorrhaged 2% TBV every 5 minutes until death.
# hemorrhagic shock [3] = test: Example 2 Series 1: 30 min hemorrhagic shock, fluid resuscitation until t=90 min; format: in vivo, rat
# Method: as §1
# Series 1: To assess the effects of SB328437 treatment after hemorrhagic shock and fluid resuscitation, and to be able to compare findings with the previous study on the effects of CCR2 and CCR5 inhibition, rats were hemorrhaged to a mean arterial blood pressure (MAP) of less than or equal to 30 mmHg for a period of 30 minutes. At the end of the hemorrhagic shock period (t=30 min), animals were injected with either vehicle (1 mL lactated Ringer's solution (LR), n=5), 0.25 μmol/kg SB328437 (n=3) or 1.1 μmol/kg SB328437 (n=3) in 1 mL LR, followed by fluid resuscitation with 1 mL bolus injections of LR to maintain a systolic blood pressure of 90 mm Hg or an MAP of 60 mm Hg until t=90 min, as described. To avoid fluid overload, bolus injections of LR were limited to 1 mL/min. At t=90 min, surviving animals were euthanized (5% isoflurane inhalation, bilateral pneumothorax).
# hemorrhagic shock [4] = test: Example 1 first series: 30 min hemorrhagic shock, fluid resuscitation until t=90 min; format: in vivo, rat; settings: 5.5 μmol/kg Maraviroc at t=30 min, vs vehicle or 1.1 INCB3284
# Method: In vivo animal experiments. All procedures were performed in accordance with the National Institutes of Health Guidelines for Use of Laboratory Animals and were approved by the University of South Florida Institutional Animal Care and Use Committeee (IS00008139). Male Sprague-Dawley rats (300-400 g, Envigo, Indianapolis, IN, USA). were anesthetized with 1.7% isoflurane via nose-cone inhalation with the SomnoSuite anesthesia system (Kent Scientific, Torrington, CT, USA). […] The left femoral artery was isolated and cannulated with a 24-gauge peripheral intravenous catheter to allow for blood withdrawal, hemodynamic monitoring, drug administration, and fluid resuscitation. Hemodynamics were continuously monitored with the SurgivetV6400 blood pressure monitor (Med-Electronics, Beltsville, MD, USA), and blood pressures and heart rate were recorded at 1-10 min intervals. All animals were observed over a 10 min period to ensure hemodynamic stability before start of the experiments. All experiments were performed randomized in alternating order. […] Physiol Res 2019; 68(4):675-679; Nassoiy S P, et al., Effects of the Kv7 voltage-activated potassium channel inhibitor linopirdine in rat models of haemorrhagic shock. Clin Exp Pharmacol Physiol 2018; Nassoiy S P, et al., Kv7 voltage-activated potassium channel inhibitors reduce fluid resuscitation requirements after hemorrhagic shock in rats. J Biomed Sci 2017; 24(1):8; Bach H Ht, et al., Proteasome inhibition prolongs survival during lethal hemorrhagic shock in rats. J Trauma Acute Care Surg 2013; 74(2):499-507; Bach H Ht, et al., Chemokine (C-X-C motif) receptor 4 and atypical chemokine receptor 3 regulate vascular alpha(1)-adrenergic receptor function. Mol Med 2014; 20:435-447), with slight modifications. In brief, rats were hemorrhaged to a mean arterial blood pressure (MAP) of less than or equal to 30 mmHg for a period of 30 minutes. At the end of the HS period (t=30 min), animals were injected with either vehicle (1 mL LR) or drug in 1 mL LR, followed by fluid resuscitation with 1 mL bolus injections of LR to maintain a systolic blood pressure (SBP) of 90 mmHg or a MAP of 60 mmHg. To avoid fluid overload, bolus injections of LR were limited to 1 mL/min. […] Animals were then resuscitated until t=90 min. At t=0, 15, 30, 60 and 90 min, blood samples were obtained, and plasma prepared. Samples were stored at -70° C. until further processing. At t=90 min, animals were euthanized (isoflurane inhalation, bilateral pneumothorax).
# CCR5 = settings: cited from earlier work
# CCR2 = CCR2 (Homo sapiens, UniProt P41597); settings: read-out: Kd, binding affinity of CCL2 for CCR2; cited from earlier work
# Chain of CCR2 (P41597 whole entry, species assumed): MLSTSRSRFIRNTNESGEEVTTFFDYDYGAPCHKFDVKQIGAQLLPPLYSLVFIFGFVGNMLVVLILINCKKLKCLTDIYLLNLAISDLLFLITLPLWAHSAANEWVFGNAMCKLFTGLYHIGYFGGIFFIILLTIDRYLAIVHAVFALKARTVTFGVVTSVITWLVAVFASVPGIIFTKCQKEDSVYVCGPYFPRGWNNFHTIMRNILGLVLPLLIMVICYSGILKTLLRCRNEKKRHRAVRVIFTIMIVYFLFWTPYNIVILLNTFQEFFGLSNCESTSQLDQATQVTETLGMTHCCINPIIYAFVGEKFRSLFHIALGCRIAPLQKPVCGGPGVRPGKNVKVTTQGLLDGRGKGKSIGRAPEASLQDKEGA
# CCR3 [5] = target: T1, CCR3; settings: cited from earlier work
compound,measurement,setting,value
COC(=O)[C@H](Cc1ccc([N+](=O)[O-])cc1)NC(=O)c1cccc2ccccc12 [SB328437],median survival time,hemorrhagic shock [1]; 1.1 μmol/kg SB328437 or 5 μmol/kg INCB3284 at t=60 min,290 min
same,animals that survived the resuscitation period,"hemorrhagic shock [1]; 1.1 μmol/kg SB328437 or 5 μmol/kg INCB3284 at t=60 min, until t=300 min, n=6",3 of 6
same,fluid requirements,hemorrhagic shock [1]; 1.1 μmol/kg at t=60 min,could not be significantly reduced
same,MAP during fluid resuscitation,"hemorrhagic shock [1]; 1.1 μmol/kg at t=60 min, between t=140-200 min",lower
same,solubility,solubility,limited
same,pIC50,CCR3 [2],8.35
same,MAP during subsequent 2% TBV hemorrhages in 5 min intervals,severe hemorrhagic shock; no fluid resuscitation,indistinguishable among groups
same,median survival time,severe hemorrhagic shock; not significantly different between groups,64 min
same,Fluid requirements to achieve the MAP target vs vehicle,hemorrhagic shock [3]; 0.25 μmol/kg at t=30 min,comparable
same,MAP vs vehicle treated animals,hemorrhagic shock [3]; 0.25 μmol/kg at t=30 min,indistinguishable
same,fluid requirements (mean±SE),"hemorrhagic shock [3]; 0.25 μmol/kg at t=30 min, until t=90 min",53 ± 7 mL/kg
same,MAP at the end of the resuscitation period (t=80-90 min),hemorrhagic shock [3]; 1.1 μmol/kg at t=30 min,higher
same,reduction of fluid requirements,"hemorrhagic shock [3]; 1.1 μmol/kg at t=30 min, until t=90 min, vs vehicle",63±4%
same,fluid requirements (mean±SE),"hemorrhagic shock [3]; 1.1 μmol/kg at t=30 min, until t=90 min, p<0.05 vs. vehicle",19.5 ± 2 mL/kg
Maraviroc,effect on fluid requirements,hemorrhagic shock [4],did not affect fluid requirements
CCL2: principal endogenous agonist of chemokine (C-C motif) receptor 2 (CCR2),binding affinity of CCL2 for CCR5 lower than for CCR2,CCR5,more than 100 fold
same,pKd,CCR2,~9.30
same,binding affinity of CCL2 for CCR3 lower than for CCR2,CCR3 [5],more than 100 fold
